EP1145714A1, “DRUGS” (Takeda Chemical Industries, Ltd., priority 1998, dated 2000)

Tested on: acute vomiting induced by a central emetic agent loperamide in dogs
Assay: Acute vomiting induced by loperamide in dogs
Type: in vivo, beagle dogs
Settings: loperamide 1 mg/kg subcutaneous
Method: 3 male or female beagle dogs (7.7 to 12.7 kg) per one group were used. Loperamide was subcutaneously given at 1 mg/ml/kg. 2.5 hours prior to loperamide administration, a small amount of a feed was given to the animals. 30 minutes thereafter, predetermined doses of the compound No. 3 were orally given. Similarly, 0.5 % methyl cellulose solution was orally given to a control animal group under no fasting. Predetermined doses of naloxone and ondansetron were given intravenously and orally, respectively to the animals under fasting, 30 minutes prior to loperamide administration. The frequency of vomiting was counted, up to 3 hours after loperamide administration. The compound No. 3 was dissolved in 0.5 % methyl cellulose solution, for oral dosing at a ratio of 0.25 to 1 ml per 1 kg body weight. Additionally, naloxone was intravenously given in a solution at a concentration of 0.05 % w/v. An injection of ondansetron at a concentration of 0.2 % w/v was orally given. Still additionally, 0.5 % methyl cellulose solution was orally given at a ratio of 1 ml per 1 kg body weight. The data relating to the frequency of vomiting, the latency and the time period from the occurrence of vomiting to the termination thereof were statistically analyzed by the Dunnett test, with reference to the difference from the control group.
The vomiting suppression ratio was calculated by the following formula. [Frequency of retching or vomiting in control] - [Frequency of retching or vomiting in animals dosed with compound No. 3] / [frequency of retching or vomiting in control] x 100 (%) [formula]

Compound: C=CCN1CC[C@]23c4c5ccc(O)c4O[C@H]2C(=O)CC[C@@]3(O)[C@H]1C5 [Naloxone, naloxone, reference compound]
- Vomiting suppression ratio (0.5 mg/kg i.v.): 93 % b
- B: Frequency of vomiting (mean ± SD) (0.5 mg/kg i.v., 3 hours): 0.7 ± 0.7 b
- C: Time period until first vomiting (minute; mean ± SD) (0.5 mg/kg i.v., 3 hours): 2.61± 0.39b minute
- D: Duration of vomiting (minute; mean ± SD) (0.5 mg/kg i.v., 3 hours): 0.01 ± 0.01 b minute
- Number of dogs with vomiting/number of tested dogs (0.5 mg/kg i.v., 3 hours): 1/3
- Effect on vomiting (in words) (0.5 mg/kg intravenous): almost completely suppressed
